Usually pIC50 stands for the negative decadic logarithm of the IC50, by convention in mol/L.

pIC50: −log10 of the molar value.

IC50 data for twelve compounds are collected here from patent US20230102554A1 (GB002, INC., priority 2019, published 2023).

Test [1] addresses T1, Human PDGFRα, cytoplasmic domain (GST-PDGFRα) (Homo sapiens, UniProt P16234).
T1 construct: made in house
Briefly: Human PDGFRα biochemical inhibition assay (off-chip Mobility Shift Assay).

Test [2] concerns the target T2, Human PDGFRβ, cytoplasmic domain (GST-PDGFRβ) (Homo sapiens, UniProt P09619).
T2 construct: made in house
Briefly: Human PDGFRβ biochemical inhibition assay (off-chip Mobility Shift Assay). A digest of the protocol: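 GST-tagged cytoplasmic domain (aa 557-1106) from baculovirus was incubated 1 h at room temperature with compound, CSKtide, ATP at Km and Mg²⁺ in HEPES buffer, pH 7.5. Phosphorylated and unphosphorylated peptide were separated by off-chip mobility shift, and the product ratio P/(P+S) gave percent inhibition.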

T2 sequence (P09619 with tags, fused parts or gaps): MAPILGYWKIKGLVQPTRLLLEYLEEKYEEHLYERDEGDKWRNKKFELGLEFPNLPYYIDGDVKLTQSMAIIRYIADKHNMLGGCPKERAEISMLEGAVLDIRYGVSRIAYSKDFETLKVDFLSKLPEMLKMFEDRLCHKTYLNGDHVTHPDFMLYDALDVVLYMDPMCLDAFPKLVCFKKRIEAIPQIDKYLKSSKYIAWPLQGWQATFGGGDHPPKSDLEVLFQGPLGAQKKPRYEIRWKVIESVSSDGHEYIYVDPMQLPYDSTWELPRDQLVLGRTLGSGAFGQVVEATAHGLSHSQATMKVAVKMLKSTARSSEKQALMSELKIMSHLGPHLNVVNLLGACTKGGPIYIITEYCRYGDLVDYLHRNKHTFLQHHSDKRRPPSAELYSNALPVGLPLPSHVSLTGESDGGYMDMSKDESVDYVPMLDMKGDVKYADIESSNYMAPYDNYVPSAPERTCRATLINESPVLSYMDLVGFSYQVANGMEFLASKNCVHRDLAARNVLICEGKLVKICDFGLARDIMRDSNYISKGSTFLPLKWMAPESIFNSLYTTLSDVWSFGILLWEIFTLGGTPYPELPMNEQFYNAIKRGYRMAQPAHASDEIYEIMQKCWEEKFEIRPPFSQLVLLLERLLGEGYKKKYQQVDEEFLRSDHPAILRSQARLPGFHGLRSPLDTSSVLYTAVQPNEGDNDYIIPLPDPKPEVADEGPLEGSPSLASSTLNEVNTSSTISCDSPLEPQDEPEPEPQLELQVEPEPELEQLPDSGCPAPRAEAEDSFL
T1 sequence (P16234 550-1089 T674I): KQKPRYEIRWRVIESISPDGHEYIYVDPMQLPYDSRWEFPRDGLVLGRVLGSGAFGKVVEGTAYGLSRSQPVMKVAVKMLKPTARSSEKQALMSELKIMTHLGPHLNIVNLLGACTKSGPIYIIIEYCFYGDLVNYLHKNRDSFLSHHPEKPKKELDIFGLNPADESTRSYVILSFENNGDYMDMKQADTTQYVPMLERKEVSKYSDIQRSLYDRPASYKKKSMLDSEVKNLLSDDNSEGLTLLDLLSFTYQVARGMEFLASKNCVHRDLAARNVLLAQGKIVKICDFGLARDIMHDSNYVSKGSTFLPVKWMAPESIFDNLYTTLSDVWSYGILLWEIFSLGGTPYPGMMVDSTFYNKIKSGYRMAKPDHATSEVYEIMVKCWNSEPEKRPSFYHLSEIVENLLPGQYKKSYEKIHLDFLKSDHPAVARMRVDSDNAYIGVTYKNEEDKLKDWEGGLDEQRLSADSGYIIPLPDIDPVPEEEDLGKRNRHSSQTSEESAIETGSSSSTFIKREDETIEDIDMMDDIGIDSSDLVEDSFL

As to `Cc1cncc(C(=O)Nc2cccc([C@H](C)Nc3cnc4cc(C(F)(F)F)ccc4n3)c2)c1` [Compound 35, (S)-5-methyl-N-(3-(1-((6-(trifluoromethyl)quinoxalin-2-yl)amino)ethyl)phenyl) nicotinamide], the pIC50 in test [1] and in test [2] was > 6.52 throughout.

Take `Cc1cncc(C(=O)Nc2cccc([C@H](C)Nc3cnc4cnn(-c5cccnc5)c4n3)c2)c1` [Compound 273, (S)-5-methyl-N-(3-(1-((1-(pyridin-3-yl)-1H-pyrazolo[3,4-b]pyrazin-6-yl)amino)ethyl)phenyl)nicotinamide]: the pIC50 in test [1] and in test [2] was > 6.52 throughout.

On to `C[C@H](Nc1cnc2cnn(C)c2n1)c1cccc(NC(=O)c2ccn(CC(F)F)n2)c1` [Compound 158, (S)-1-(2,2-difluoroethyl)-N-(3-(1-((1-methyl-1H-pyrazolo[3,4-b]pyrazin-6-yl)amino)ethyl)phenyl)-1H-pyrazole-3-carboxamide], for which the values for the pIC50 in test [1] and in test [2] were > 6.52 and 6.00 to 6.52, respectively.

As to `Cc1cc(C(=O)Nc2cccc([C@H](C)Nc3cnc4cnn(C)c4n3)c2)cnc1Cl` [Compound 200, (S)-6-chloro-5-methyl-N-(3-(1-((1-methyl-1H-pyrazolo[3,4-b]pyrazin-6-yl)amino)ethyl)phenyl)nicotinamide], the negative logarithm of the IC50 (pIC50) in test [1] and in test [2] was > 6.52 each time.

Consider `COc1cncc(C(=O)Nc2cccc([C@H](C)Nc3cnc4[nH]cc(C)c4n3)c2)c1` [Compound 555, (S)-5-methoxy-N-(3-(1-((7-methyl-5H-pyrrolo[2,3-b]pyrazin-2-yl)amino)ethyl)phenyl)nicotinamide], for which the pIC50 in test [1] and in test [2] was > 6.52 each time.

On to `CCn1cc2ncc(N[C@@H](C)c3cc(NC(=O)Cc4ccc(C5CC5)cn4)ccc3F)nc2n1` [Compound 655, (S)-2-(5-cyclopropylpyridin-2-yl)-N-(3-(1-((2-ethyl-2H-pyrazolo[3,4-b]pyrazin-6-yl)amino)ethyl)-4-fluorophenyl) acetamide], for which the figures for the pIC50 in test [1] and in test [2] were > 6.52 and ≤ 6.00, respectively.

As for `CCn1cc2ncc(N[C@@H](C)c3cccc(NC(=O)Cc4cccc(C)c4)c3)nc2n1` [Compound 622, (S)-N-(3-(1-((2-ethyl-2H-pyrazolo[3,4-b]pyrazin-6-yl)amino)ethyl)phenyl)-2-(m-tolyl) acetamide], the pIC50 in test [1] and in test [2] was > 6.52 each time.

Turning to `CCn1cc2ncc(N[C@@H](C)c3cccc(NC(=O)Nc4ccc(C(F)(F)F)nc4)c3)nc2n1` [Compound 736, (S)-1-(3-(1-((2-ethyl-2H-pyrazolo[3,4-b]pyrazin-6-yl)amino)ethyl)phenyl)-3-(6-(trifluoromethyl)pyridin-3-yl) urea], the negative-log IC50 (pIC50) in test [1] and in test [2] was > 6.52 in each case.

Turning to `CCn1cc2ncc(N[C@@H](C)c3cc(NC(=O)Cc4cncc(F)c4)ccc3F)nc2n1` [Compound 653, (S)-N-(3-(1-((2-ethyl-2H-pyrazolo[3,4-b]pyrazin-6-yl)amino)ethyl)-4-fluorophenyl)-2-(5-fluoropyridin-3-yl)acetamide], the pIC50 in test [1] was > 6.52; in test [2], ≤ 6.00.

On to `COc1ccc2ncc(N[C@@H](C)c3cccc(NC(=O)c4cncc(C)c4)c3)nc2c1` [Compound 32, (S)-N-(3-(1-((7-methoxyquinoxalin-2-yl)amino)ethyl)phenyl)-5-methylnicotinamide], for which the negative logarithm of the IC50 (pIC50) in test [1] and in test [2] was > 6.52 each time.

As to `CCn1cc2ncc(N[C@@H](C)c3cccc(NC(=O)c4ccc(C)c(Cl)c4)c3)nc2n1` [Compound 332, (S)-3-chloro-N-(3-(1-((2-ethyl-2H-pyrazolo[3,4-b]pyrazin-6-yl)amino)ethyl)phenyl)-4-methylbenzamide], the negative logarithm of the IC50 (pIC50) in test [1] and in test [2] was > 6.52 each time.

As to `CCn1cc2ncc(N[C@@H](C)c3cccc(NC(=O)Cc4ccccc4)c3)nc2n1` [Compound 633, (S)-N-(3-(1-((2-ethyl-2H-pyrazolo[3,4-b]pyrazin-6-yl)amino)ethyl)phenyl)-2-phenylacetamide], the negative-log IC50 (pIC50) is > 6.52 in test [1] and 6.00 to 6.52 in test [2].
